Experimental data taken from patent US7300664B1, “Vaginally administrable progesterone-containing tablets and method for preparing same” (Ferring B.V., priority 1998, dated 2007).
Where two headings read alike, the source gives them in different places.

Experiments:
[1] = Single-dose pharmacokinetics of progesterone vaginal tablets in post-menopausal women (Example 4, day 0); assay type: in vivo; settings: single vaginal tablet, mean; for Tmax / half-life: female, human, serum; for half-life: read-out: T1/2 (mean elimination half-life) (converted); for Cmax: read-out: Cmax (maximal serum concentration)
Method: The pharmacokinetics and clinical use of tablets prepared in accordance with the invention were evaluated as follows: 50 healthy, post-menopausal women with intact uteri, 39 of whom had suffered premature menopause and 11 who were truly postmenopausal, all of whom were undergoing hormone replacement therapy (HRT), submitted blood samples for determination of baseline profiles of hormones (progesterone and other hormones) and other biochemicals (bilirubin, cholesterol, etc.). The blood samples were taken at 8 AM on the first day of the evaluation (day 0) in a fasting state, by intravenous indwelling catheter which was introduced into the cubital vein. Non-estrogen primed postmenopausal women were chosen in order to avoid confusion with endogenous progesterone secretion and estrogen influence on vaginal mucosa absorption (Villanueva et al., Fertil. Steril. 35 (1981), 433-437). The women then self-administered the progesterone vaginal tablet using a plastic applicator and lay down for 20 minutes. Repeat blood samples for progesterone concentration were withdrawn 0.5, 1, 2, 4, 6, 8, 10, 12 and 24 hours after the vaginal insertion. Blood was allowed to clot at room temperature for 1 hour, after which the serum was separated by centrifugation and stored at −20° C. until analysis. Of the 50 women who participated in the evaluation, 20 were allocated tablets containing 50 mg progesterone, and the remainder of the participants received tablets containing 100 mg progesterone. […] The mean […] (Tmax), mean elimination half-life (T1/2), maximal serum concentration (Cmax), and AUC (area under the curve, i.e. total amount of plasma progesterone observed) derived from the blood samples taken on day 0 of the evaluation are summarized in Table II.

[2] = Clinical use: twice-daily vaginal tablets, blood samples on days 14 and 30 (Example 4); assay type: in vivo, women; settings: female, human, serum, other: vaginal, fasting morning sample, read-out: Blood Progesterone levels
Method: The pharmacokinetics and clinical use of tablets prepared in accordance with the invention were evaluated as follows: 50 healthy, post-menopausal women with intact uteri, 39 of whom had suffered premature menopause and 11 who were truly postmenopausal, all of whom were undergoing hormone replacement therapy (HRT), submitted blood samples for determination of baseline profiles of hormones (progesterone and other hormones) and other biochemicals (bilirubin, cholesterol, etc.). The blood samples were taken at 8 AM on the first day of the evaluation (day 0) in a fasting state, by intravenous indwelling catheter which was introduced into the cubital vein. Non-estrogen primed postmenopausal women were chosen in order to avoid confusion with endogenous progesterone secretion and estrogen influence on vaginal mucosa absorption (Villanueva et al., Fertil. Steril. 35 (1981), 433-437). To evaluate clinical use of the drug, the women were instructed to insert tablets prepared in accordance with the present invention, containing the same dose as administered on day 0, twice daily starting on day 1, and to […] for 20 minutes after each insertion. On days 14 and 30, blood samples for comparison with the baseline were drawn in the morning while the subjects were in a fasting state. Of the 50 women who participated in the evaluation, 20 were allocated tablets containing 50 mg progesterone, and the remainder of the participants received tablets containing 100 mg progesterone.

[3] = 50 mg progesterone, 20 subjects
[4] = 100 mg progesterone, 30 subjects

## CC(=O)[C@H]1CC[C@H]2[C@@H]3CCC4=CC(=O)CC[C@]4(C)[C@H]3CC[C@]12C [Progesterone, progesterone]
[1]; [3]
  Tmax: 6.1 h
  half-life: 13.2 h
  AUC (area under the curve): 154.15 nmol/h/L
  Cmax: 20.4 nM
[1]; [4]
  Tmax: 6.4 h
  half-life: 13.7 h
[1]; 100 mg progesterone, 30 subjects, P = 0.0004
  Cmax: 31.6 nM
[1]; 100 mg progesterone, 30 subjects, P = 0.001
  AUC (area under the curve): 247.61 nmol/h/L
[2]; 50 mg twice daily, Day 14, 50 mg tablet twice daily, 20 subjects
  concentration at 14 day: 17.5 nM
[2]; 50 mg twice daily, Day 30, 50 mg tablet twice daily, 20 subjects
  concentration at 30 day: 17.4 nM
[2]; 100 mg twice daily, Day 14, 100 mg tablet twice daily, 30 subjects
  concentration at 14 day: 26.1 nM
[2]; 100 mg twice daily, Day 30, 100 mg tablet twice daily, 30 subjects
  concentration at 30 day: 21.4 nM
